Source: ChEMBL document CHEMBL5291721, “A preclinical secondary pharmacology resource illuminates target-adverse drug reaction associations of marketed drugs” (Nat Commun, 2023)

Tests used:
[1] = target: T1, 5-hydroxytryptamine receptor 1A (Homo sapiens, UniProt P08908)
T1 sequence (P08908 whole entry): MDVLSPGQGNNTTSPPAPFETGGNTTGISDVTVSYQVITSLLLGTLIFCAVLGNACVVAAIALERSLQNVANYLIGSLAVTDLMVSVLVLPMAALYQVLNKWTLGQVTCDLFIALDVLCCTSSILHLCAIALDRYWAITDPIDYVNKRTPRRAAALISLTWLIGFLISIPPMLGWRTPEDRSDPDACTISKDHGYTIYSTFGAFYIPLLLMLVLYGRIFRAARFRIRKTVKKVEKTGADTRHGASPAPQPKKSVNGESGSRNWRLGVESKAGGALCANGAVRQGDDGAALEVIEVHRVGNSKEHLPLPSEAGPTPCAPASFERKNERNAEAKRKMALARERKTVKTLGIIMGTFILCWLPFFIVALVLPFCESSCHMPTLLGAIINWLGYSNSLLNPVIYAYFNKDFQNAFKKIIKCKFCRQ

Thromboxane A2 receptor [2] = target: T2, Thromboxane A2 receptor (Homo sapiens, UniProt P21731); type: functional, cell-based
T2 sequence (P21731 whole entry): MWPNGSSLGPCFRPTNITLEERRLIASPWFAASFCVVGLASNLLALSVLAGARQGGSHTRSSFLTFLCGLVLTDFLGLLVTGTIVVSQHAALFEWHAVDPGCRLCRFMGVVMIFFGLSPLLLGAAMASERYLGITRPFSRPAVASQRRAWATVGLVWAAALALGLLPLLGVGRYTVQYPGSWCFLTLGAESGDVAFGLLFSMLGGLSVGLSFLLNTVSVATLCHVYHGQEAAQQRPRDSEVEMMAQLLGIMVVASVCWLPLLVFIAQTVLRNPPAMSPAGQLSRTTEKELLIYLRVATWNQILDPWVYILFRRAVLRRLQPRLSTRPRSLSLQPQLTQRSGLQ

[3] = target: T3, Muscarinic acetylcholine receptor M2 (Homo sapiens, UniProt P08172)
T3 sequence (P08172 whole entry): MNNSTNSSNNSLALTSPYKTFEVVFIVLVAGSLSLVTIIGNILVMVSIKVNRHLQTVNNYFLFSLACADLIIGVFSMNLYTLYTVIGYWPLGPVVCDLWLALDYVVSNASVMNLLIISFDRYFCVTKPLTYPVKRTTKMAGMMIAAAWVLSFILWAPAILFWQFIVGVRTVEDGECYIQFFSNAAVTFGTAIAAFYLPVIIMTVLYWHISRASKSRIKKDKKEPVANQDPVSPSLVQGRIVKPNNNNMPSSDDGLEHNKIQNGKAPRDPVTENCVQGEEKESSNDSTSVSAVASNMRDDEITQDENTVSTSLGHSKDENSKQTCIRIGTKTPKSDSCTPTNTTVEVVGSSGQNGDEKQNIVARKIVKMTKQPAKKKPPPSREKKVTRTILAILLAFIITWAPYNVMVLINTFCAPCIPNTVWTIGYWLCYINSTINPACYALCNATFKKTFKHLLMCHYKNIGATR

Thromboxane A2 receptor [4] = target: T2, Thromboxane A2 receptor; type: functional, cell-based; remark: listed apart in the source
[5] = target: T4, Alpha-1A adrenergic receptor (Homo sapiens, UniProt P35348); type: functional, cell-based
T4 sequence (P35348 whole entry): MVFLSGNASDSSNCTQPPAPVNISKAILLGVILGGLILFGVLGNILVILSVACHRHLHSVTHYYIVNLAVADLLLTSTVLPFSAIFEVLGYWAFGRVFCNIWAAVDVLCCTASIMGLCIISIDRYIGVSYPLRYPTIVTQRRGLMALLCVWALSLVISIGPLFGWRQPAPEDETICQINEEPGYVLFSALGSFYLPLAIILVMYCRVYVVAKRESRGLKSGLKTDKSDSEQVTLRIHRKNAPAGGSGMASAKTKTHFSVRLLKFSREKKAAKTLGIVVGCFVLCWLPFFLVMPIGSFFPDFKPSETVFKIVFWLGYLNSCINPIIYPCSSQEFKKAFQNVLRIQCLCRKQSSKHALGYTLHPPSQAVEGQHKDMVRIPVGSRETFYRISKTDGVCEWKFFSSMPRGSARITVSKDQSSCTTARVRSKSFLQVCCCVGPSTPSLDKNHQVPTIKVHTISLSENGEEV

[6] = target: T5, Alpha-2C adrenergic receptor (Homo sapiens, UniProt P18825); type: functional
T5 sequence (P18825 whole entry): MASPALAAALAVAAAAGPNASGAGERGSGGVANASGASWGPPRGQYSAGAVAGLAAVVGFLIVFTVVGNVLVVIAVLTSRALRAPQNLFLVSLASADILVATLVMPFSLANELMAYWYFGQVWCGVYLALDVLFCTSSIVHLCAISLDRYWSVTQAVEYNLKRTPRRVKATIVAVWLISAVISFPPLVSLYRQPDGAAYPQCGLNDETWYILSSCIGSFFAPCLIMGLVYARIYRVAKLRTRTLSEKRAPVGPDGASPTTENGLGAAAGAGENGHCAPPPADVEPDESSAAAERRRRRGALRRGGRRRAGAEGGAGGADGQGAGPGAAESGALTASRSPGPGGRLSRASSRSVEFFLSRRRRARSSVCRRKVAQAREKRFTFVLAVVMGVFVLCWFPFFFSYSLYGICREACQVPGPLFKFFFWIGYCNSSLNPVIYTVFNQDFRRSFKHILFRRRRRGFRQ

Mu-type opioid receptor = Mu-type opioid receptor (Homo sapiens, UniProt P35372); assay: biochemical; type: functional
Estrogen receptor = target: T6, Estrogen receptor (Homo sapiens, UniProt P03372)
T6 sequence (P03372 whole entry): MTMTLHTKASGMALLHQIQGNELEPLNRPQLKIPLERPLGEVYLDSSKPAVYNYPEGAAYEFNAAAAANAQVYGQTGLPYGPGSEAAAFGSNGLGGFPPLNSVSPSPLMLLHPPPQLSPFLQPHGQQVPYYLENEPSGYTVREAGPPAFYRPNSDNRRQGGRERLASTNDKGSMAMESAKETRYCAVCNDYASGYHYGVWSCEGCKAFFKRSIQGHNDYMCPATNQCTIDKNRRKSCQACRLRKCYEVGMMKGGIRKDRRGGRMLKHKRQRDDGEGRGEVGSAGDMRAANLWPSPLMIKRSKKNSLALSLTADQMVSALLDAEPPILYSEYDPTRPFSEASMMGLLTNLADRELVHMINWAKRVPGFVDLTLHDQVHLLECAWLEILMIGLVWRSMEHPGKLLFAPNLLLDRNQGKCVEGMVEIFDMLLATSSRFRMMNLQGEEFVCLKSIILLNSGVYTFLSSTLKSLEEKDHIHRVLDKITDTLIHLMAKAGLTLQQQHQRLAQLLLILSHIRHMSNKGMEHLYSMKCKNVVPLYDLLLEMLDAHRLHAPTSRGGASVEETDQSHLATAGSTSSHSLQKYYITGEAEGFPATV

[7] = target: 5-hydroxytryptamine receptor 2B (Homo sapiens, UniProt P41595); type: functional, cell-based
Further: assay procedure not described here.

Chain of Mu-type opioid receptor (P35372 whole entry): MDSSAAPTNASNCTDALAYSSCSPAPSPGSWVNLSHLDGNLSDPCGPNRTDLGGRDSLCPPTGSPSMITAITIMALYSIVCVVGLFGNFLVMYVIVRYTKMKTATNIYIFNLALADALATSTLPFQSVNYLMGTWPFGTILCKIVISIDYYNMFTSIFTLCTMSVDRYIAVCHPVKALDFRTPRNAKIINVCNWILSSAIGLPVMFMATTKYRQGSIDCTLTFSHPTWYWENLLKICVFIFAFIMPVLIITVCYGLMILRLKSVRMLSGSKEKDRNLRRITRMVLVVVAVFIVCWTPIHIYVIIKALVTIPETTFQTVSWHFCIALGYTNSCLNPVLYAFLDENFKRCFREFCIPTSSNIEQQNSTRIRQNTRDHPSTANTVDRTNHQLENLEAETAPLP
Chain of 5-hydroxytryptamine receptor 2B (P41595 whole entry): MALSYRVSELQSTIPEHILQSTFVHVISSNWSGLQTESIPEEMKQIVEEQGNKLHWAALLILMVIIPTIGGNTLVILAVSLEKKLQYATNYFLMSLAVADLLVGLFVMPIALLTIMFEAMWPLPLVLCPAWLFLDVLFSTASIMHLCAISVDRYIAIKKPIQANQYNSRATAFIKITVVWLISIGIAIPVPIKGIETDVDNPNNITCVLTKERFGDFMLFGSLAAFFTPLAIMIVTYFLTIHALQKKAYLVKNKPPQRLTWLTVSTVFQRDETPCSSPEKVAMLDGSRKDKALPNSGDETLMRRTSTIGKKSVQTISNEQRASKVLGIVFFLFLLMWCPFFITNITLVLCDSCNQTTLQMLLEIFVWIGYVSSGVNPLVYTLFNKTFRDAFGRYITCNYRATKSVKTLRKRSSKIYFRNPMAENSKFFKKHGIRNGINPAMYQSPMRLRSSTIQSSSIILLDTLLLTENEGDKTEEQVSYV

Compound | AC50 [1] [µM] | AC50 (Thromboxane A2 receptor [2]) [µM] | AC50 [3] [µM] | AC50 (Thromboxane A2 receptor [4]) [µM] | AC50 [5] [µM] | AC50 [6] [µM] | AC50 (Mu-type opioid receptor) [µM] | AC50 (Estrogen receptor) [µM] | AC50 [7] [µM]
CN(C)c1ccc(C(=C2C=CC(=[N+](C)C)C=C2)c2ccc(N(C)C)cc2)cc1 [GENTIAN VIOLET] | 4.24 | 2.03 | 0.478 | > 30 | 0.845 |  |  |  | 
Nc1ccc(S(N)(=O)=O)cc1 [SULFANILAMIDE] | > 30 | > 30 | > 30 | > 30 | > 30 |  |  |  | 
HYDROXOCOBALAMIN |  |  |  |  |  | 20 | > 30 | > 30 | > 30
